Assay results from PMC6956804, “Potent antibacterial activity of MSI-1 derived from the magainin 2 peptide against drug-resistant bacteria” (Theranostics, 2020).
≈ marks a conversion by molar mass, not a printed value. Structures can show the parent of a compound that is named as a salt. Where two headings read alike, the source gives them in different places. Peptide text beside a SMILES is read from it.

Tests used:
PRSP P112 = experiment: microbe, parasite or virus in culture; format: cell-based, Streptococcus pneumoniae
Experimental: (§1) Bacterial strains were purchased from the American Type Culture Collection (ATCC). All clinical strains were isolated from human clinical specimens by the Medical Laboratory Center of Zhongda Hospital (Nanjing, Jiangsu, China). Ndm-1, tem-1, ctx-m-1, shv-1 -carrying bacteria were constructed as previously described. The recombinant bacteria carrying drug-resistant genes were prepared in LB nutrient and induced by IPTG (1 mM) for 4 h before text. Other bacterial strains were respectively prepared in MHB and Columbia Blood Agar Base.
(§2) A standard micro-broth serial dilution assay was used to measure MIC of peptides. MIC was obtained by a microplate reader at 600 nm. MBC was determined as previously described.

PISP F34 = experiment: microbe, parasite or virus in culture; format: cell-based, Streptococcus pneumoniae; settings: PISP F34, clinical strain
Experimental: as §1, §2

PISP F22 = experiment: microbe, parasite or virus in culture; format: cell-based, Streptococcus pneumoniae; settings: PISP F22, clinical strain
Experimental: as §1, §2

PRSP P105 = experiment: microbe, parasite or virus in culture; format: cell-based, Streptococcus pneumoniae
Experimental: as §1, §2

MRSA M101 = experiment: microbe, parasite or virus in culture; format: cell-based, Staphylococcus aureus
Experimental: as §1, §2

MSSA D1 = experiment: microbe, parasite or virus in culture; format: cell-based, Staphylococcus aureus; settings: MSSA D1, clinical strain
Experimental: as §1, §2

MRSA M108 = experiment: microbe, parasite or virus in culture; format: cell-based, Staphylococcus aureus
Experimental: as §1, §2

MSSA D4 = experiment: microbe, parasite or virus in culture; format: cell-based, Staphylococcus aureus; settings: MSSA D4, clinical strain
Experimental: as §1, §2

[1] = tested on: K. peneumoniae B4 (ESBLs (+)); experiment: organism not typed; format: cell-based
Experimental: as §1, §2

[2] = tested on: K. peneumoniae B9 (ESBLs (+)); experiment: organism not typed; format: cell-based
Experimental: as §1, §2

[3] = tested on: K. peneumoniae B6 (ESBLs (+)); experiment: organism not typed; format: cell-based
Experimental: as §1, §2

K. peneumoniae ATCC4352 = experiment: organism not typed; format: cell-based
Experimental: as §1, §2

MSSE E8 = experiment: microbe, parasite or virus in culture; format: cell-based, Staphylococcus epidermidis; settings: MSSE E8, clinical strain
Experimental: as §1, §2

MRSE N104 = experiment: microbe, parasite or virus in culture; format: cell-based, Staphylococcus epidermidis
Experimental: as §1, §2

MSSE E3 = experiment: microbe, parasite or virus in culture; format: cell-based, Staphylococcus epidermidis; settings: MSSE E3, clinical strain
Experimental: as §1, §2

MRSE N109 = experiment: microbe, parasite or virus in culture; format: cell-based, Staphylococcus epidermidis
Experimental: as §1, §2

E. coli ATCC25922 = experiment: microbe, parasite or virus in culture; format: cell-based; settings: micro-broth serial dilution, 600 nm
Experimental: as §1, §2

E. faecalis = experiment: microbe, parasite or virus in culture; format: cell-based
Experimental: as §1, §2

E. coli A5 (ESBLs (+)) = experiment: microbe, parasite or virus in culture; format: cell-based
Experimental: as §1, §2

Shigella flexneri = experiment: microbe, parasite or virus in culture; format: cell-based
Experimental: as §1, §2

E. cloacae S3 (AmpC (+)) = experiment: microbe, parasite or virus in culture; format: cell-based
Experimental: as §1, §2

E. faecium = experiment: microbe, parasite or virus in culture; format: cell-based
Experimental: as §1, §2

E. coli A2 (ESBLs (+)) = experiment: microbe, parasite or virus in culture; format: cell-based
Experimental: as §1, §2

P. aeruginosa ATCC27853 = experiment: microbe, parasite or virus in culture; format: cell-based
Experimental: as §1, §2

S. aureus ATCC25923 = experiment: microbe, parasite or virus in culture; format: cell-based
Experimental: as §1, §2

E. coli A9 (ESBLs (+)) = experiment: microbe, parasite or virus in culture; format: cell-based
Experimental: as §1, §2

[4] = tested on: P. aeruginosa T6 (ESBLs (+)); experiment: microbe, parasite or virus in culture; format: cell-based
Experimental: as §1, §2

[5] = tested on: P. aeruginosa T1 (ESBLs (+)); experiment: microbe, parasite or virus in culture; format: cell-based
Experimental: as §1, §2

[6] = tested on: P. aeruginosa T8 (ESBLs (+)); experiment: microbe, parasite or virus in culture; format: cell-based
Experimental: as §1, §2

E. cloacae S1 (AmpC (+)) = experiment: microbe, parasite or virus in culture; format: cell-based
Experimental: as §1, §2

S. pneumoniae ATCC 49619 = experiment: microbe, parasite or virus in culture; format: cell-based
Experimental: as §1, §2

S. epidermidis ATCC35984 = experiment: microbe, parasite or virus in culture; format: cell-based
Experimental: as §1, §2

[7] = Streptococcus pneumoniae, read-out: MIC
[8] = Staphylococcus aureus, read-out: MIC
[9] = Staphylococcus epidermidis, read-out: MIC
[10] = Staphylococcus epidermidis, MRSE

Compound `CC[C@H](C)[C@H](NC(=O)CN)C(=O)NCC(=O)N[C@@H](CCCCN)C(=O)N[C@@H](Cc1ccccc1)C(=O)N[C@@H](CC(C)C)C(=O)N[C@@H](CCCCN)C(=O)N[C@@H](CCCCN)C(=O)N[C@@H](C)C(=O)N[C@@H](CCCCN)C(=O)N[C@@H](CCCCN)C(=O)N[C@@H](Cc1ccccc1)C(=O)NCC(=O)N[C@@H](CCCCN)C(=O)N[C@@H](C)C(=O)N[C@@H](Cc1ccccc1)C(=O)N[C@H](C(=O)N[C@@H](CCCCN)C(=O)N[C@H](C(=O)N[C@@H](CC(C)C)C(=O)N[C@@H](CCCCN)C(=O)N[C@@H](CCCCN)C(N)=O)[C@@H](C)CC)C(C)C` [MSI-78, pexiganan] (H-GIGKFLKKAKKFGKAFVKILKK-NH2) has an MIC (PRSP P112; PRSP P112, clinical strain) of 32 mg/L (≈ 12.9 µM), an MIC (PISP F34) of 32 mg/L (≈ 12.9 µM) and an MIC (PISP F22) of 16 mg/L (≈ 6.46 µM). It also gave an MIC (PRSP P105; PRSP P105, clinical strain) of 16 mg/L (≈ 6.46 µM), an MIC (MRSA M101; MRSA M101, clinical strain) of 32 mg/L (≈ 12.9 µM) and an MIC (MSSA D1) of 16 mg/L (≈ 6.46 µM). The MIC (MRSA M108; MRSA M108, clinical strain) was 16 mg/L (≈ 6.46 µM), the MIC (MSSA D4) was 32 mg/L (≈ 12.9 µM) and the MIC ([1]; K. peneumoniae B4 (ESBLs (+)), clinical strain) was 16 mg/L (≈ 6.46 µM). For the same compound, the MIC ([2]; K. peneumoniae B9 (ESBLs (+)), clinical strain) was 32 mg/L (≈ 12.9 µM), the MIC ([3]; K. peneumoniae B6 (ESBLs (+)), clinical strain) was 16 mg/L (≈ 6.46 µM) and the MIC (K. peneumoniae ATCC4352) was 8 mg/L (≈ 3.23 µM). It also gave an MIC (MSSE E8) of 16 mg/L (≈ 6.46 µM), an MIC (MRSE N104; MRSE N104, clinical strain) of 32 mg/L (≈ 12.9 µM) and an MIC (MSSE E3) of 32 mg/L (≈ 12.9 µM). It also gave an MIC (MRSE N109; MRSE N109, clinical strain) of 16 mg/L (≈ 6.46 µM), an MIC (E. coli ATCC25922) of 16 mg/L (≈ 6.46 µM) and an MIC (E. faecalis) of 16 mg/L (≈ 6.46 µM). The MIC (E. coli A5 (ESBLs (+)); E. coli A5 (ESBLs (+)), clinical strain) was 16 mg/L (≈ 6.46 µM), the MIC (Shigella flexneri) was 32 mg/L (≈ 12.9 µM) and the MIC (E. cloacae S3 (AmpC (+)); E. cloacae S3 (AmpC (+)), clinical strain) was 16 mg/L (≈ 6.46 µM). For the same compound, the MIC (E. faecium) was 8 mg/L (≈ 3.23 µM), the MIC (E. coli A2 (ESBLs (+)); E. coli A2 (ESBLs (+)), clinical strain) was 8 mg/L (≈ 3.23 µM) and the MIC (P. aeruginosa ATCC27853) was 16 mg/L (≈ 6.46 µM). For the same compound, the MIC (S. aureus ATCC25923) was 16 mg/L (≈ 6.46 µM), the MIC (E. coli A9 (ESBLs (+)); E. coli A9 (ESBLs (+)), clinical strain) was 16 mg/L (≈ 6.46 µM) and the MIC ([4]; P. aeruginosa T6 (ESBLs (+)), clinical strain) was 16 mg/L (≈ 6.46 µM). The MIC ([5]; P. aeruginosa T1 (ESBLs (+)), clinical strain) was 32 mg/L (≈ 12.9 µM), the MIC ([6]; P. aeruginosa T8 (ESBLs (+)), clinical strain) was 16 mg/L (≈ 6.46 µM) and the MIC (E. cloacae S1 (AmpC (+)); E. cloacae S1 (AmpC (+)), clinical strain) was 16 mg/L (≈ 6.46 µM). The MIC (S. pneumoniae ATCC 49619) was 16 mg/L (≈ 6.46 µM) and the MIC (S. epidermidis ATCC35984) was 16 mg/L (≈ 6.46 µM).

`CC1(C)S[C@@H]2[C@H](NC(=O)Cc3ccccc3)C(=O)N2[C@H]1C(=O)O` [Penicillin, Penicillin G sodium salt] was tested, and the MIC (PRSP P112; Streptococcus pneumoniae, PRSP) was > 256 mg/L, the MIC (PISP F34; [7]) was 0.5 mg/L and the MIC (PISP F22; [7]) was 1 mg/L. The MIC (PRSP P105; Streptococcus pneumoniae, PRSP) was > 256 mg/L, the MIC (MRSA M101; Staphylococcus aureus, MRSA) was > 256 mg/L and the MIC (MSSA D1; [8]) was 0.5 mg/L. For the same compound, the MIC (MRSA M108; Staphylococcus aureus, MRSA) was > 256 mg/L, the MIC (MSSA D4; [8]) was 0.125 mg/L and the MIC [1] was > 256 mg/L. For the same compound, the MIC [2] was > 256 mg/L, the MIC [3] was > 256 mg/L and the MIC (K. peneumoniae ATCC4352; read-out: MIC) was 1 mg/L. The MIC (MSSE E8; [9]) was 1 mg/L, the MIC (MRSE N104; [10]) was > 256 mg/L and the MIC (MSSE E3; [9]) was 2 mg/L. For the same compound, the MIC (MRSE N109; [10]) was > 256 mg/L, the MIC (E. coli ATCC25922; Escherichia coli, read-out: MIC) was 0.25 mg/L and the MIC (E. faecalis; Enterococcus faecalis, read-out: MIC) was > 256 mg/L. The MIC (E. coli A5 (ESBLs (+)); Escherichia coli) was > 256 mg/L, the MIC (Shigella flexneri) was > 256 mg/L and the MIC (E. cloacae S3 (AmpC (+)); Enterobacter cloacae) was > 256 mg/L. For the same compound, the MIC (E. faecium; Enterococcus faecium, read-out: MIC) was > 256 mg/L, the MIC (E. coli A2 (ESBLs (+)); Escherichia coli) was > 256 mg/L and the MIC (P. aeruginosa ATCC27853; Pseudomonas aeruginosa, read-out: MIC) was 0.5 mg/L. For the same compound, the MIC (S. aureus ATCC25923; [8]) was 0.125 mg/L, the MIC (E. coli A9 (ESBLs (+)); Escherichia coli) was > 256 mg/L and the MIC ([4]; Pseudomonas aeruginosa) was > 256 mg/L. The MIC ([5]; Pseudomonas aeruginosa) was > 256 mg/L, the MIC ([6]; Pseudomonas aeruginosa) was > 256 mg/L and the MIC (E. cloacae S1 (AmpC (+)); Enterobacter cloacae) was > 256 mg/L. It also gave an MIC (S. pneumoniae ATCC 49619; Streptococcus pneumoniae, ATCC49619, read-out: MIC) of 0.25 mg/L and an MIC (S. epidermidis ATCC35984; [9]) of 0.5 mg/L.
